This note sets out measurements from patent publication US20050153894A1, “p21 peptides” (Cyclacel Limited, priority 1999, published 2005).

One experiment has as its target T1, CDK4/Cyclin D1 (Homo sapiens, UniProt P24385).
T1 construct: made in house; host or cells: CDK4: Sf9 insect cells (baculovirus)
The experiment in a line: CDK4/Cyclin D1 kinase assay, phosphorylation of GST-Rb. The format is biochemical.

The target in experiment [1] is T2, CDK1/Cyclin B (Homo sapiens, UniProt P14635).
T2 construct: 6xHis; made in house; host or cells: Sf9 insect cells (baculovirus co-expression)
The experiment is described as follows: CDK1/Cyclin B kinase assay, phosphorylation of GST-Rb. The experiment is classed as biochemical. The conditions noted are these: CDK1-Cyclin B induced phosphorylation of GST-Rb. The method, then:
The phosphorylation reaction mixture (total volume 40 μl) consisted of 50 mM HEPES pH 7.4, 20 mM MgCl2, 5 mM EGTA, 2 mM DTT, 20 mM β-glycerophosphate, 2 mM NaF, 1 mM Na3VO4, Protease Inhibitors Cocktail (Sigma, see above), BSA 0.5 mg/ml, 1 μg purified enzyme complex, 10 μl of GST-Rb-Sepharose beads, 100 μM ATP, 0.2 μCi ^32P-ATP. The reaction was carried out for 30 min at 30° C. at constant shaking. At the end of this period 100 μl of 50 mM HEPES, pH 7.4 and 1 mM ATP were added to each well and the total volume was transferred onto GFC filtered plate. The plate was washed 5 times with 200 μl of 50 mM HEPES, pH 7.4 and 1 mM ATP. To each well were added 50 μl scintillant liquid and the radioactivity of the samples was measured on Scintilation counter (Topcount, HP). The IC50 values of different peptides were calculated using GraFit software.

Another experiment deals with cyclin B (Homo sapiens, UniProt P14635). The experiment in a line: Pull-down with immobilised peptide: cyclin B. The format is binding.
Experiment [2] has as its target T3, CDK2/Cyclin E (Homo sapiens, UniProt P24864).
T3 construct: 6xHis; made in house; host or cells: Sf9 insect cells (baculovirus co-expression)
The experiment in a line: CDK2/Cyclin E kinase assay, phosphorylation of GST-Rb. The experiment is classed as biochemical.

Experiment [3] deals with T2, CDK1/Cyclin B. The experiment is described as follows: CDK1/Cyclin B kinase assay, phosphorylation of Histone 1. The experiment is classed as biochemical. The method, then: (§1) Histone 1 phosphorylation induced by CDK2/Cyclin E and CDK1/Cyclin B was measured using similar method. The concentration of Histone 1 in the kinase reaction was 1 mg/ml (unless different stated).

Experiment [4] addresses T3, CDK2/Cyclin E. The experiment in a line: CDK2/Cyclin E kinase assay, phosphorylation of Histone 1. The format is biochemical. The method, then: as §1
A further experiment has as its target Cyclin A (Homo sapiens, UniProt P20248). The experiment is described as follows: Pull-down with immobilised biotinylated peptide: cyclin A. The format is binding. The conditions noted are these: biotinylated peptide on streptavidin-agarose beads. The text has this:
(§2) A biotinylated version of p21(149-159) was used in “pull-down” experiments with the purified CDK sub-units, CDK2, CDK4, cyclin A, cyclin D1, and with the complexes of CDK2/cyclin A or CDK4/cyclin D1 kinases, in order to determine the binding partner of the peptide. The biotinylated peptide was pre-immobilised on streptavidin-agarose beads. […] Both CDK2 and CDK4 were “pulled down”, however, with biotinylated p21(149-159)-streptavidin-agarose beads when they were in a complex with cyclin A or cyclin D1, respectively. Similar results were obtained with cyclin E and CDK2/cyclin E complex. […] Such a method may be utilised either alone or together with a candidate substance to identify cyclin binding moities and/or inhibitors of cyclin-CDK interaction.

Another experiment has as its target CDK2 (Homo sapiens, UniProt P24941). The experiment in a line: Pull-down with immobilised biotinylated peptide: CDK2. The format is binding. The settings on record: in the absence of cyclin partner.
Text: as §2

In the next experiment the target is T4, CDK4 (Homo sapiens, UniProt P11802).
T4 construct: 6xHis; made in house; host or cells: Sf9 insect cells (baculovirus)
The experiment is described as follows: Pull-down with immobilised biotinylated peptide: CDK4. The experiment is classed as binding. The settings on record: in the absence of cyclin partner.
Text: as §2

Another experiment has as its target T5, Cyclin D1 (Homo sapiens, UniProt P24385).
T5 construct: made in house
The experiment in a line: Pull-down with immobilised biotinylated peptide: cyclin D1. The experiment is classed as binding. The conditions noted are these: biotinylated peptide on streptavidin-agarose beads.
Text: as §2

pIC50: −log10 of the molar value. Entries after “also recorded” stand apart in the source; their conditions may differ. Where two headings read alike, the source gives them in different places.

T2 sequence (P14635 whole entry): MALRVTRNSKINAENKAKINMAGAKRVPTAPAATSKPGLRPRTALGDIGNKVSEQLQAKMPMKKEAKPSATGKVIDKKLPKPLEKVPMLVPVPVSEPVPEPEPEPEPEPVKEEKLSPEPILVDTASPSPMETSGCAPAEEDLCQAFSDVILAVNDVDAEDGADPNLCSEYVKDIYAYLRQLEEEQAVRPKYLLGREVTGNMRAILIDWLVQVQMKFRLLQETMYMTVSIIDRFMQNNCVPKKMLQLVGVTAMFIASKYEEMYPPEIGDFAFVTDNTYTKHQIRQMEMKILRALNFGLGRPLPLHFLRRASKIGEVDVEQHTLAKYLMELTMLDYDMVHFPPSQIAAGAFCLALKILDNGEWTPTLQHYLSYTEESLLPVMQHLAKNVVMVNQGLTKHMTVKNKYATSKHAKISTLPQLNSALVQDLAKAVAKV
T2 sequence (P06493 whole entry partner): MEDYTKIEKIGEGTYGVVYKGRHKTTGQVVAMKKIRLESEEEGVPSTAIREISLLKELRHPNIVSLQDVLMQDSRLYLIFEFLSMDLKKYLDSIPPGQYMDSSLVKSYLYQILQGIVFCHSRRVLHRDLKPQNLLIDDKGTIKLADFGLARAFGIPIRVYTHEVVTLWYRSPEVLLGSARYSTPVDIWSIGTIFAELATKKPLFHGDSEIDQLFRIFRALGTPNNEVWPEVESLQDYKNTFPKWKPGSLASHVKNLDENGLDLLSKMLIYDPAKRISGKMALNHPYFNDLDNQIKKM
T1 sequence (P24385 whole entry): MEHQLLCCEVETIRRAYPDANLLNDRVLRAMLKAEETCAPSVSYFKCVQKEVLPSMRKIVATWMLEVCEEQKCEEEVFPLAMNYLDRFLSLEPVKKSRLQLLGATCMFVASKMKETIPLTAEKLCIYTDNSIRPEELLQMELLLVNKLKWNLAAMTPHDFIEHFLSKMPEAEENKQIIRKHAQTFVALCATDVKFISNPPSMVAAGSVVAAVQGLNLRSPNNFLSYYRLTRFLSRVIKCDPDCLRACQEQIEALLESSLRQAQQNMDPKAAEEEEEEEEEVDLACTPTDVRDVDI
T1 sequence (P11802 whole entry partner): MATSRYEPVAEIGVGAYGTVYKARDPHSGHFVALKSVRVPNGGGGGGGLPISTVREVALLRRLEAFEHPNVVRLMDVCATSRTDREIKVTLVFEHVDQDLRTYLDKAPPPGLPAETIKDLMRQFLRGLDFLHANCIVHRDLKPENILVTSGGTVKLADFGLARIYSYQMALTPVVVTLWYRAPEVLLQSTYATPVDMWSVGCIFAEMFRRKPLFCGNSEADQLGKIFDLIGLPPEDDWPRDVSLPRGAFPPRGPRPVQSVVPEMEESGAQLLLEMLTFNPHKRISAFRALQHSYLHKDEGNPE
Cyclin A, sequence (P20248 whole entry): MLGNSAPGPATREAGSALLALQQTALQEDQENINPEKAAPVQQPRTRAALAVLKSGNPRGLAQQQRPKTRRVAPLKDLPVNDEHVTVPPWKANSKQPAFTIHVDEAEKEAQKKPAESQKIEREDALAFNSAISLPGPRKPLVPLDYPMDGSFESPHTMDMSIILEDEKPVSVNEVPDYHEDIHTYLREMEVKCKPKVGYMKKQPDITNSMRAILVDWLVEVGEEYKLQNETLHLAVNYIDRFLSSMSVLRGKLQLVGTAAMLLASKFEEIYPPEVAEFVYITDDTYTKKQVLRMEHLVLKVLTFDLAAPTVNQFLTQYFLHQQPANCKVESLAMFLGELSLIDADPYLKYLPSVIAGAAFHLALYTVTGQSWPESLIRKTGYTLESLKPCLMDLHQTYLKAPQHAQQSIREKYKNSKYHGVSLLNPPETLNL
T5 sequence (P24385 whole entry): as the sequence (P24385 whole entry) above
cyclin B, sequence (P14635 whole entry): as the sequence (P14635 whole entry) above
T4 sequence (P11802 whole entry, species assumed): as the sequence (P11802 whole entry partner) above

Take H-DFYHSKRRLIFS-NH2 [p21(149-160)]: at CDK4/Cyclin D1, the “inhibition of CDK4/Cyclin D1 phosphorylation of GST-Rb, in words” value is given as “very similar activity”. At CDK4/Cyclin D1 (GST-pRb substrate, [ATP] = 100 μM), this substance displayed an inhibition at 100 µM of 70%. Moreover, the pIC50 against CDK1/Cyclin B [1] and on CDK1/Cyclin B [3] (CDK1-Cyclin B induced phosphorylation of Histone 1) was under 3.70 throughout. For the same substance, on cyclin B, the “pull-down of cyclin B (monomer or complex with CDK1)” value was “unable to precipitate”. Besides, the “inhibition of CDK2/Cyclin E phosphorylation of GST-Rb, in words” value against CDK2/Cyclin E [2] is recorded as “specifically inhibit”. The “inhibition of CDK1/cyclin B phosphorylation of histone H1, in words” value against CDK1/Cyclin B [3] is listed as “did not have any significant effect”. For the same substance, the “inhibition of CDK2/Cyclin E phosphorylation of Histone 1, in words” value at CDK2/Cyclin E [4] was “completely inactive; also recorded: did not inhibit”; against CDK2/Cyclin E [4] (listed as p21 (149-160)) it was “do not inhibit”.
At CDK1/Cyclin B [1], H-DFYHSKRRLIF-NH2 [p21(149-159)] had a pIC50 of under 3.70. In addition, the “binding to cyclin A in pull-down” value at Cyclin A was “bound”. Also, the “binding to CDK2 in pull-down” value on CDK2 was “failed to interact”. Also, at CDK4, the “binding to CDK4 in pull-down” value is “failed to interact”. The “binding to cyclin D1 in pull-down” value on Cyclin D1 is listed as “bound”.

In general, inhibition refers to the percentage by which the read-out fell short of the control. The low end stands for a weak effect, the high end for a strong effect. As a reminder, the pIC50 is the IC50 on a negative log10 scale, so that one unit is a factor of ten. Low readings indicate a high IC50, high ones a low IC50.
